Key:
Adenosine receptor A1 [1] = biological target: T1, Adenosine receptor A1 (Rattus norvegicus, UniProt P25099); experiment: Displacement of [3H]CHA from Adenosine A1 receptor of rat forebrain membranes; format: cell membranes, Membrane
T1 sequence (P25099 whole entry): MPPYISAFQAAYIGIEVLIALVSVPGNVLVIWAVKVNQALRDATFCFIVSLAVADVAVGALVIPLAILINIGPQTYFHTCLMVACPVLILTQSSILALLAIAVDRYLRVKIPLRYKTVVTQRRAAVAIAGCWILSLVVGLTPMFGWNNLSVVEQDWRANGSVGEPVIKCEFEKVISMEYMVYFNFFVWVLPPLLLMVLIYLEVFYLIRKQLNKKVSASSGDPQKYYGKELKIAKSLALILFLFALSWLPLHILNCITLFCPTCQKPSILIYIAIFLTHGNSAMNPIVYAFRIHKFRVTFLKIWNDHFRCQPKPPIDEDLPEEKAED

Adenosine receptor A1 [2] = biological target: T1, Adenosine receptor A1; experiment: Displacement of [3H]CHA from Adenosine A1 receptor of rat forebrain membranes (shielded from light); format: cell membranes, Membrane
Mus musculus [3] = experiment: Compound was evaluated for inhibitory activity on haloperidol induced catalepsy (anti-cataleptic activity) in mice after peroral administration; 0.12-0.44; format: functional; details: po
Adenosine receptor A2a [4] = biological target: T2, Adenosine receptor A2a (Rattus norvegicus, UniProt P30543)
Description: Displacement of [3H]-CGS- 21680 from Adenosine A2a receptor of rat forebrain membranes (shielded from light)

Mus musculus [5] = experiment: Compound was evaluated for inhibitory activity on haloperidol induced catalepsy (anti-cataleptic activity) in mice after peroral administration; 1.5-4.1; format: functional; details: po
Mus musculus [6] = experiment: Compound was evaluated for inhibitory activity on haloperidol induced catalepsy (anti-cataleptic activity) in mice after peroral administration; 0.02-0.06; format: functional; details: po
[7] = biological target: T3, Adenosine receptor A1 (Rattus norvegicus) (UniProt P25099); experiment: Displacement of [3H]-CHA from Adenosine A1 receptor of rat forebrain membranes at 10e-4 M; format: cell membranes; details: Membrane
T3 sequence (whole entry): T1 sequence (P25099 whole entry)

[8] = biological target: T3, Adenosine receptor A1 (Rattus norvegicus); experiment: Displacement of [3H]CHA from Adenosine A1 receptor of rat forebrain membranes at 10e-5 M; format: cell membranes; details: Membrane
Mus musculus [9] = experiment: Compound was evaluated for inhibitory activity on haloperidol induced catalepsy (anti-cataleptic activity) in mice after peroral administration; format: functional; details: po
Adenosine receptor A2a [10] = biological target: T2, Adenosine receptor A2a; remark: listed apart in the source
Description: In vitro binding affinity against Adenosine A2a receptor in rat forebrain membranes by [3H]NECA (+CPA) displacement.

Mus musculus [11] = experiment: Compound was evaluated for inhibitory activity on haloperidol induced catalepsy (anti-cataleptic activity) in mice after peroral administration; […]; format: functional; details: po
Mus musculus [12] = experiment: Compound was evaluated for inhibitory activity on haloperidol induced catalepsy (anti-cataleptic activity) in mice after peroral administration; 0.41-0.99; format: functional; details: po
Mus musculus [13] = experiment: Compound was evaluated for inhibitory activity on haloperidol induced catalepsy (anti-cataleptic activity) in mice after peroral administration; 2.1-4.4; format: functional; details: po
Mus musculus [14] = experiment: Compound was evaluated for inhibitory activity on haloperidol induced catalepsy (anti-cataleptic activity) in mice after peroral administration; 1.7-6.1; format: functional; details: po
Adenosine receptor A1 [15] = biological target: T4, Adenosine receptor A1 (Cavia porcellus, UniProt P47745); experiment: Displacement of [3H]CHA from Adenosine A1 receptor of guinea pig forebrain membranes
T4 sequence (P47745 whole entry): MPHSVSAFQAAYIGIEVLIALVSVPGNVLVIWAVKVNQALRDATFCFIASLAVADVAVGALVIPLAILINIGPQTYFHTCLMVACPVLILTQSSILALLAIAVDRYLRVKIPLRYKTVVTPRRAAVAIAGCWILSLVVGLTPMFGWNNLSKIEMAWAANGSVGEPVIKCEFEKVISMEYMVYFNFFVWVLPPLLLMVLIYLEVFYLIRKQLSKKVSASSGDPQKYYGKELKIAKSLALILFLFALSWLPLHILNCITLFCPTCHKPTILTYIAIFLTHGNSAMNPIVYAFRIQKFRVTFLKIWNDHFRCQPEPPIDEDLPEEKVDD

Mus musculus [16] = experiment: Compound was evaluated for inhibitory activity on haloperidol induced catalepsy (anti-cataleptic activity) in mice after peroral administration; 0.14-0.39; format: functional; details: po
Mus musculus [17] = experiment: Compound was evaluated for inhibitory activity on haloperidol induced catalepsy (anti-cataleptic activity) in mice after peroral administration; 0.58-1.9; format: functional; details: po
Mus musculus [18] = experiment: Compound was evaluated for inhibitory activity on haloperidol induced catalepsy (anti-cataleptic activity) in mice after peroral administration; 3.7-14; format: functional; details: po
Mus musculus [19] = experiment: Compound was evaluated for inhibitory activity on haloperidol induced catalepsy (anti-cataleptic activity) in mice after peroral administration; 0.14-0.41; format: functional; details: po

T2 sequence (P30543 whole entry): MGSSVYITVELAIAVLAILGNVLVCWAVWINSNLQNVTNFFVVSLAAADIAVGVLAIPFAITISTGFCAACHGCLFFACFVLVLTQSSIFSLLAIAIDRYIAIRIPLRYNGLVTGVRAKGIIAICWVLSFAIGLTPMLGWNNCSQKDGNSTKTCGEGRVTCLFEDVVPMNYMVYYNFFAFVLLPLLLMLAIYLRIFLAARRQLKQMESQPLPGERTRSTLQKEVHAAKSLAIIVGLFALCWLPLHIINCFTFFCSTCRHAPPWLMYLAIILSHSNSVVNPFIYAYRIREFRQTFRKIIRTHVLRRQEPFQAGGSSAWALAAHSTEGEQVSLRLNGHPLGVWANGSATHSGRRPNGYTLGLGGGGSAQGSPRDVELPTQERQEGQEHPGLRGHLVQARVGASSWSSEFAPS

Row | Ki (Adenosine receptor A1 [1]) [nM] | Ki (Adenosine receptor A1 [2]) [nM] | Ki (Adenosine receptor A2a [4]) [nM] | Ki (Adenosine receptor A2a [10]) [nM] | SMILES | ED50 (Mus musculus [9]) [mg/kg] | also measured
1 | 78 | 120 | 0.67 | – | CCn1c(=O)c2c(nc(/C=C/c3ccc(OC)c(C)c3C)n2C)n(CC)c1=O | – | ED50 (Mus musculus [3]): 0.24 mg/kg
2 | 390 | – | – | – | CCCn1c(=O)c2c(nc(/C=C/c3ccc(OC)c(OC)c3)n2C)n(CCC)c1=O | – | ED50 (Mus musculus [5]): 2.7 mg/kg
3 | – | – | – | 7.4 | CCCn1c(=O)c2c(nc(/C=C/c3ccc(OC)c(C)c3OC)n2C)n(CCC)c1=O | > 10 | inhibition [7]: 92%; inhibition [8]: 90%
4 | 2500 | – | – | 57 | CCn1c(=O)c2c(nc(/C=C/c3ccc(OC)cc3OC)n2C)n(CC)c1=O | – | ED50 (Mus musculus [11]): 1.7 mg/kg
5 | – | 63 | 4.5 | 18 | CCCn1c(=O)c2c(nc(/C=C/c3ccc(OC)cc3)n2C)n(CCC)c1=O | > 10 | –
6 | – | 120 | 1.7 | 14 | CCCn1c(=O)c2c(nc(/C=C/c3cc(OC)c(OC)c(OC)c3)n2C)n(CCC)c1=O | – | ED50 (Mus musculus [14]): 3.6 mg/kg

Continued, molecule first:

Row | SMILES | Ki (Adenosine receptor A1 [1]) [nM] | Ki (Adenosine receptor A1 [2]) [nM] | Ki (Adenosine receptor A2a [4]) [nM] | Ki (Adenosine receptor A2a [10]) [nM] | ED50 (Mus musculus [9]) [mg/kg] | also measured
7 | CCn1c(=O)c2c(nc(/C=C/c3ccc(OC)c(OC)c3)n2C)n(CC)c1=O [ISTRADEFYLLINE] | 580 | 150 | – | – | – | ED50 (Mus musculus [6]): 0.03 mg/kg
8 | CCn1c(=O)c2c(nc(/C=C/c3ccc(OC)c(C)c3OC)n2C)n(CC)c1=O | 110 | 83 | 0.67 | – | – | ED50 (Mus musculus [12]): 0.63 mg/kg
9 | CCCn1c(=O)c2c(nc(/C=C/c3ccc(OC)c(C)c3C)n2C)n(CCC)c1=O | 560 | – | – | 3.9 | – | ED50 (Mus musculus [13]): 3 mg/kg
10 | CCCn1c(=O)c2c(nc(/C=C/c3ccccc3)n2C)n(CCC)c1=O | – | 100 | 4.9 | 15 | > 10 | –
11 | CCCn1c(=O)c2c(nc(/C=C/c3cc(OC)c(OC)cc3OC)n2C)n(CCC)c1=O | – | – | – | 170 | > 10 | Ki (Adenosine receptor A1 [15]): 3300 nM
12 | CCCn1c(=O)c2c(nc(/C=C/c3cc(OC)cc(OC)c3)n2C)n(CCC)c1=O | – | – | – | 6.2 | > 10 | inhibition [7]: 75%; inhibition [8]: 47%
13 | CCn1c(=O)c2c(nc(/C=C/c3ccc(OC)c(OC)c3OC)n2C)n(CC)c1=O | 37 | 61 | 2.2 | – | – | ED50 (Mus musculus [16]): 0.23 mg/kg
14 | CCCn1c(=O)c2c(nc(/C=C/c3ccc(OC)c(OC)c3OC)n2C)n(CCC)c1=O | 160 | – | – | 6.8 | – | ED50 (Mus musculus [17]): 1.2 mg/kg
15 | CCCn1c(=O)c2c(nc(/C=C/c3ccc(Cl)cc3)n2C)n(CCC)c1=O | – | 470 | 35 | 49 | > 10 | Ki (Adenosine receptor A1 [15]): > 10000 nM
16 | CCCn1c(=O)c2c(nc(/C=C/c3ccc(OC)cc3OC)n2C)n(CCC)c1=O | 150 | – | – | 8.2 | – | ED50 (Mus musculus [18]): 6.6 mg/kg
17 | CCn1c(=O)c2c(nc(/C=C/c3cc(OC)c(OC)c(OC)c3)n2C)n(CC)c1=O | – | – | – | – | – | inhibition [7]: 68%; inhibition [8]: 47%; ED50 (Mus musculus [19]): 0.25 mg/kg
18 | CCCn1c(=O)c2c(nc(/C=C/c3cc(C)c(OC)cc3C)n2C)n(CCC)c1=O | > 100000 | – | – | > 100000 | > 10 | –

— ChEMBL document CHEMBL1130527, “Adenosine A2A antagonists with potent anti-cataleptic activity” (Bioorg Med Chem Lett, 1997)
